Experiments:
NF90-8 cells = test: Cell proliferation assay (Cell Counting Kit-8), NF90-8; assay type: cell-based; conditions: Homo sapiens, 72 h
Procedure: (§1) The human NF1-associated MPNST cell line NF90.8 was privately provided and sNF96.2 was purchased from the American Type Culture Collection. […] These cell lines were not authenticated. All cells were tested and found free of mycoplasma contamination. A cell proliferation assay was performed using Cell Counting Kit-8. Cells in 100 μL media in a 96-well plate were incubated with 10 μL of WST-8, a tetrazolium salt, at 37° C. in a tissue culture incubator. Absorbance was measured at 450 nm. Half maximal inhibitory concentrations (IC50s) were determined by incubating cells at a range of concentrations for 72 h and were calculated using the log (inhibitor) vs. response function and non-linear fit. Human MPNST cells NF90-8 and sNF96.2, both derived from NF1 patients, were treated with various MBZ concentrations for 72 h. […] Because NF1-associated tumors are mainly driven by Ras hyperactivation, MBZ's ability to inhibit Ras activity in the NF90-8 cell line was studied by exposing NF90-8 cells to different concentrations of MBZ (0.2 and 1 μM) for 24 h. […] This confirmed the Ras inhibitory effect of MBZ in vitro.

sNF96.2 cells = test: Cell proliferation assay (Cell Counting Kit-8), sNF96.2; assay type: cell-based; conditions: Homo sapiens, 72 h
Procedure: as §1

[1] = system: GTP-bound Ras in NF90-8 cells; test: Ras activity assay (Active Ras Detection Kit, GST-Raf1-RBD pull-down); assay type: cell-based, human; conditions: 0.2 and 1 μM, 24 h
Procedure: A Ras activity assay was performed according to the manufacturer's instructions for the Active Ras Detection Kit. Briefly, cells were lysed with the Lysis/Binding/Wash buffer and pelleted, then the supernatant was used as the cell lysate. In the positive control, 5 μL of 10 mM GTPγS was added to 500 μL of lysates and incubated at 30° C. for 15 min. Cell lysates were incubated with glutathione resin, together with the purified GST-Raf1-RBD protein at 4° C. for 1 h in a spin cup. The resin was washed, and the bound proteins were eluted by incubating with dithiothreitol (DTT)-containing sample buffer at RT for 2 min. Eluted samples were heated and analyzed by anti-Ras Western blotting. Human MPNST cells NF90-8 and sNF96.2, both derived from NF1 patients, were treated with various MBZ concentrations for 72 h. […] Because NF1-associated tumors are mainly driven by Ras hyperactivation, MBZ's ability to inhibit Ras activity in the NF90-8 cell line was studied by exposing NF90-8 cells to different concentrations of MBZ (0.2 and 1 μM) for 24 h. […] This confirmed the Ras inhibitory effect of MBZ in vitro.

[2] = Dose-dependent toxicity of medicated feed in NPcis mice; assay type: in vivo
Procedure: (§2) At day 60 after birth, heterozygous mice were started on the medicated feed or water. The mouse diet consisting of 45 kcal % fat containing soybean oil and lard for fat was used as the control feed. […] Sulindac was added to drinking water at 160 ppm (0.5 mg/day) in 4 mM sodium phosphate buffer as previously described. Animals were palpated weekly for tumors and survival and cause of death were recorded.
This range was calculated based on previously established maximal dose of 50 mg/kg MBZ via oral gavage and the estimated daily food intake of a mouse. Mice were weighed weekly and examined for signs of toxicity over 4 weeks.

[3] = system: NPcis (cis Nf1+/-; Tp53+/-) mice; test: Chemoprevention in NPcis mice (tumor onset, survival, cause of death); assay type: in vivo; conditions: for effect on survival of non-solid malignancy-related and unknown causes of death / effect on overall median survival vs controls / overall median survival: NPcis mice; for effect on survival of non-solid malignancy-related and unknown causes of death: male and female; for effect on overall median survival vs controls: treatment from day 60; for overall median survival: MBZ 195 mg/kg feed, CXB 1000 ppm feed, SUL 160 ppm drinking water; for increase in median survival: 195 mg/kg feed
Text: NPcis (cis Nf1+/−; Tp53+/−) mice in C57BL/6 background (B6;129S2-Trp53tm1Tyj Nf1tm1Tyj/J) were bred by pairing male heterozygous NPcis mice with the female wildtype mice to better generate MPNST animals. Since homozygous Nf1/Tp53 KO mice are embryonically lethal, only heterozygous and wildtype pups were born. Like NF1 patients, NPcis mice spontaneously develop predominantly soft tissue sarcomas including MPNSTs (genetically engineered murine (GEM) PNSTs) and malignant Triton tumors, as well as rhabdomyosarcomas and astrocytomas that severely limit their life expectancy to ˜5 months. The addition of heterozygous Tp53 knock-out (KO) accelerates the cancer development, which mimics the secondary mutations required for the transformation to malignancies such as MPNST, where the second copy of Nf1 is also lost due to the loss of heterozygosity (LOH).
as §2
In order to investigate the tumor-preventative effects of MBZ, continuous oral administration of MBZ via 195 mg/kg feed was initiated at 60 days after birth, before the formation of any malignancies. Mice were palpated weekly for the presence of any tumors. For the purpose of this study, ‘Solid Malignancies’ were defined as any type of sarcoma and astrocytoma, in addition to neuroblastomas and carcinomas, while ‘Others’ included non-solid malignancies such as lymphomas, leukemias and unknown causes of death.

pERK = test: Immunohistochemistry of pERK1/2 and ERK1/2 in tumors of NPcis mice; assay type: in vivo; conditions: sarcomas of NPcis mice, 195 mg/kg diet
Procedure: Mouse tumors were first fixed by formalin and embedded in paraffin. For hematoxylin & eosin (H&E) staining, the section was de-paraffinized and stained by the standard hematoxylin and eosin procedure to visualize tissue structures. For immunostaining, rabbit anti-Erk1/2 and anti-pErk1/2 antibodies were used. Sections were de-paraffinized using a standard procedure and blocked using 1.9% H2O2 in methanol at room temperature for 10 min. Sections were heated at 100° C. for 20 min in the antigen retrieval citrate solution and blocked by the serum-free protein blocker for 5 min at room temperature. After incubation with the rabbit anti-Erk1/2 or anti-pErk1/2 antibody diluted at 1:50 overnight at 4° C., biotin-conjugated anti-rabbit IgG was applied for 20 min at room temperature, followed by washing and incubation with streptavidin peroxidase for 15 min at room temperature. Antibody binding was visualized by the 3,3′-Diaminobenzidine (DAB) chromogen system. Subsequently, sections were counterstained by hematoxylin. Immunohistochemistry (IHC) quantification of representative tumor tissue sections was carried out with open source software using JPEG files. Mean optical density (OD) was calculated as the log average (maximal intensity/mean intensity) after image processing with color deconvolution and background subtraction. […]

[4] = 195 mg/kg feed from day 60, solid malignancies, male and female combined

| SMILES | IC50 (NF90-8 cells) [nM] | IC50 (sNF96.2 cells) [nM] | activated form of GTP-bound Ras [1] | tolerability of long-term daily continuous administration ([2]; 195 mg/kg feed, started 60 days after birth, male and female) | signs of toxicity ([2]; 250 and 215 mg/kg diets, over 4 weeks) | weight loss ([2]; 250 and 215 mg/kg diets, over 4 weeks, male and female NPcis mice) | delay of tumor occurrence and median mortality vs control [3, 4] [days] | tumor occurrence and median mortality [3, 4] [days] | effect on survival of non-solid malignancy-related and unknown causes of death [3] | effect on overall median survival vs controls [3] | overall median survival [3] [days] | increase in median survival ([3]; female mice, solid malignancies) [days] | increase in median survival ([3]; male mice, solid malignancies) [days] | reduction in solid cancer-related causes of death ([3]; vs control NPcis mice) [%] | ERK staining, mean intensity (pERK) | pERK DAB staining, mean optical density (OD) (pERK; three tumor samples) |
| --- | --- | --- | --- | --- | --- | --- | --- | --- | --- | --- | --- | --- | --- | --- | --- | --- |
| COC(=O)Nc1nc2ccc(C(=O)c3ccccc3)cc2[nH]1 [MBZ, mebendazole] | 180 | 320 | reduced in MBZ-treated NF90-8 cells in a concentration-dependent manner | well tolerated | excessive toxicity | 10-15% | 32 | 192 | did not affect | significantly increased | 199 | 14 | 34.5 | ~25 | 0.07 | 0.02 |
| CC1=C(CC(=O)O)c2cc(F)ccc2/C1=C\c1ccc([S+](C)[O-])cc1 (stereo not shown) [SUL, sulindac] |  |  |  |  |  |  |  |  | neither SUL nor CXB had an effect | failed to demonstrate any effect | 171.5 |  |  |  |  |  |
